From the CheMixHub viscosity set

Test: xn = mol fraction of the nth substance listed

CCCCCCCCCCCC(=O)OC + CCCCCCCCCC(=O)OCC
viscosity [mPa·s], 100 kPa
Settings	298.15 K	308.15 K	318.15 K
x2 = 0.04836	2.784	2.203	1.856
x2 = 0.1051	2.725	2.165	1.824
x2 = 0.1954	2.649	2.106	1.778
x2 = 0.3128	2.556	2.041	1.723
x2 = 0.4082	2.482	1.988	1.677
x2 = 0.5008	2.417	1.945	1.639
x2 = 0.5987	2.348	1.897	1.601
x2 = 0.6571	2.307	1.87	1.582
x2 = 0.7044	2.274	1.849	1.567
x2 = 0.8	2.211	1.806	1.533
x2 = 0.8986	2.147	1.763	1.497

CCOC(C)=O + CCCCCCO
viscosity [mPa·s], 101.33 kPa
Settings	x1 = 0.1142	x1 = 0.2247	x1 = 0.332	x1 = 0.436	x1 = 0.537	x1 = 0.635	x1 = 0.7301	x1 = 0.8227	x1 = 0.9125
298.15 K	2.832	2.006	1.472	1.128	0.9	0.736	0.618	0.539	0.47
303.15 K	2.481	1.775	1.334	1.027	0.824	0.692	0.574	0.506	0.448
308.15 K	2.181	1.582	1.2	0.942	0.76	0.591	0.541	0.475	0.419

COC(=O)CC(C)=O + CC(C)CO
viscosity [mPa·s], 101.3 kPa
Settings	x1 = 0.1046	x1 = 0.2052	x1 = 0.3095	x1 = 0.4094	x1 = 0.5075	x1 = 0.6057	x1 = 0.7026	x1 = 0.8059	x1 = 0.902
298.15 K	2.24	1.81	1.598	1.463	1.385	1.352	1.35	1.38	1.449
303.15 K	1.944	1.591	1.412	1.303	1.241	1.221	1.223	1.251	1.312
308.15 K	1.696	1.407	1.257	1.17	1.124	1.108	1.114	1.143	1.198

OCC(O)CO + CCC(C)O
viscosity [mPa·s], 101.33 kPa
Settings	x1 = 0.103	x1 = 0.2005	x1 = 0.3005	x1 = 0.4065	x1 = 0.5004	x1 = 0.6005	x1 = 0.6997	x1 = 0.7989	x1 = 0.8998
298.15 K	4.899	8.259	14.21	26.4	50.58	96.78	190.1	327.9	521.9
308.15 K	3.311	5.321	8.761	15.79	27.46	49.39	90.98	149.4	231.6
318.15 K	2.387	3.648	5.727	9.681	15.6	26.39	45.42	71.57	107.4

COC(=O)CC(C)=O + CO
viscosity [mPa·s], 101.3 kPa
Settings	x1 = 0.1017	x1 = 0.1887	x1 = 0.3013	x1 = 0.4048	x1 = 0.5038	x1 = 0.6056	x1 = 0.7015	x1 = 0.8024	x1 = 0.8994
298.15 K	0.599	0.662	0.757	0.858	0.954	1.064	1.163	1.288	1.413
303.15 K	0.563	0.618	0.704	0.793	0.879	0.978	1.066	1.176	1.288
308.15 K	0.525	0.578	0.657	0.737	0.815	0.902	0.984	1.082	1.18

CCOc1ccccc1 + CCCCCCCCCCO
viscosity [mPa·s], 101.3 kPa
Settings	x1 = 0.0999	x1 = 0.2011	x1 = 0.2996	x1 = 0.4003	x1 = 0.5011	x1 = 0.6025	x1 = 0.6998	x1 = 0.8007	x1 = 0.9012
293.15 K	11.33	8.76	6.789	5.22	4.017	3.116	2.486	2.001	1.637
298.15 K	9.33	7.335	5.786	4.5	3.502	2.729	2.188	1.79	1.501
308.15 K	6.907	5.541	4.402	3.45	2.705	2.149	1.724	1.397	1.144
318.15 K	4.863	3.962	3.226	2.613	2.125	1.726	1.414	1.147	0.9405

Nc1cc[nH]c(=O)n1 + O
viscosity [mPa·s], 101.3 kPa
Settings	x1 = 0.000131	x1 = 0.0001895	x1 = 0.0002822	x1 = 0.000457	x1 = 0.0004889	x1 = 0.0005591
298.15 K	0.892	0.893	0.894	0.895	0.896	0.897
308.15 K	0.721	0.722	0.722	0.724	0.724	0.725
318.15 K	0.598	0.598	0.599	0.601	0.601	0.602

CCCCCCCCn1cc[n+](C)c1.[Cl-] + CCCCCCCC[n+]1ccn(C)c1.F[B-](F)(F)F
101 kPa
Settings	viscosity [mPa·s]
303.15 K, x1 = 0.2	529.1
308.15 K, x1 = 0.2	381.3
308.15 K, x1 = 0.4	756.6
313.15 K, x1 = 0.4	534.9
318.15 K, x1 = 0.4	386.7
318.15 K, x1 = 0.6	735.5
323.15 K, x1 = 0.6	523

FC(F)(F)C(F)(F)Cl + CC(F)F
Settings	viscosity [mPa·s]
299.88 K, 101.13 kPa, x1 = 0.69	0.1856

OCC(O)CO + CC(=O)N(C)C
viscosity [mPa·s], 101 kPa
Settings	x1 = 0.124	x1 = 0.241	x1 = 0.353	x1 = 0.459	x1 = 0.56	x1 = 0.656	x1 = 0.748	x1 = 0.836	x1 = 0.92
303.15 K	2.21	3.92	7.04	12.8	29.9	61.6	120.7	204.4	335.7
318.15 K	1.78	3.01	4.79	7.81	17.6	26.3	43.2	75.9	117.4

COC(=O)CC(C)=O + CCCO
viscosity [mPa·s], 101.3 kPa
Settings	x1 = 0.1028	x1 = 0.2021	x1 = 0.3067	x1 = 0.407	x1 = 0.5069	x1 = 0.609	x1 = 0.7057	x1 = 0.8054	x1 = 0.9036
298.15 K	1.497	1.333	1.253	1.221	1.219	1.238	1.278	1.339	1.501
303.15 K	1.337	1.213	1.128	1.102	1.104	1.123	1.163	1.217	1.295
308.15 K	1.198	1.096	1.024	1.003	1.007	1.027	1.062	1.114	1.183

CCCCCCCCCCCCCCCCCCCl + CCCCCCCCCCCC
298 K, 101.3 kPa
Settings	viscosity [mPa·s]
x2 = 0.1097	6.289
x2 = 0.2096	5.429
x2 = 0.3134	4.684
x2 = 0.4067	4
x2 = 0.5044	3.481
x2 = 0.6047	2.887
x2 = 0.6853	2.488
x2 = 0.805	2.012
x2 = 0.8971	1.662

CC(=O)N(C(C)C)C(C)C + O
298.16 K, 101 kPa
Settings	viscosity [mPa·s]
x2 = 0.0812	2.4
x2 = 0.2041	2.83
x2 = 0.3933	3.61
x2 = 0.5827	4.68
x2 = 0.6893	5.21
x2 = 0.7296	5.3
x2 = 0.7747	5.26
x2 = 0.8218	4.96
x2 = 0.856	4.59

OCC(O)CO + CN1CCCC1=O
101 kPa
Settings	viscosity [mPa·s]
298 K, x2 = 0.078	418.4
298 K, x2 = 0.16	269.4
298 K, x2 = 0.338	72.84
298 K, x2 = 0.433	38.94
298 K, x2 = 0.534	20.42
298 K, x2 = 0.641	11.12
298 K, x2 = 0.754	4.23
298 K, x2 = 0.873	2.44
303 K, x2 = 0.078	289.9
303 K, x2 = 0.16	160.5
303 K, x2 = 0.336	55.93
303 K, x2 = 0.432	30.16
303 K, x2 = 0.533	17.83
303 K, x2 = 0.64	9.48
303 K, x2 = 0.753	3.75
303 K, x2 = 0.872	2.26
308 K, x2 = 0.077	211.3
308 K, x2 = 0.159	118.3
308 K, x2 = 0.335	43.4
308 K, x2 = 0.43	25.79
308 K, x2 = 0.531	15.16
308 K, x2 = 0.638	7.7
308 K, x2 = 0.751	3.27
308 K, x2 = 0.872	2.02
313 K, x2 = 0.077	143.4
313 K, x2 = 0.158	87.14
313 K, x2 = 0.334	35.17
313 K, x2 = 0.43	20.73
313 K, x2 = 0.53	10.45
313 K, x2 = 0.637	6.13
313 K, x2 = 0.751	2.91
313 K, x2 = 0.871	1.88
318 K, x2 = 0.077	106.1
318 K, x2 = 0.158	54.08
318 K, x2 = 0.334	25
318 K, x2 = 0.429	16.1
318 K, x2 = 0.53	9.03
318 K, x2 = 0.637	5.17
318 K, x2 = 0.75	2.68
318 K, x2 = 0.871	1.72
323 K, x2 = 0.077	83.45
323 K, x2 = 0.158	50.16
323 K, x2 = 0.334	21.33
323 K, x2 = 0.429	13.43
323 K, x2 = 0.53	7.11
323 K, x2 = 0.637	4.64
323 K, x2 = 0.75	2.46
323 K, x2 = 0.871	1.6
